Measured values: patent publication US6723897B2, “Methods for controlling gibberellin levels” (Monsanto Technology, LLC, priority 1998, dated 2004)
Values joined by “and” are separate entries in the source; they are usually repeats but may differ in a detail not shown here. Identical values can stand only once.

Tests used:
[1] = tested on: pMON29801 soybean line 719; assay: Foliar GA3 spray, stature of FMV/asCPScc soybean; type: in vivo, Glycine max
Excerpt: A foliar spray of GA3 restores normal stature of Line 719 plants. GA3 restores normal vegetative development (Table 6) when sprayed on the foliage of GA-deficient dwarf plants during vegetative development at rates between 10^−4 and 10^−6 M plus a surfactant (Tween 20, 0.05% v/v).

[2] = tested on: pMON34439 soybean lines 46 and 202; assay: GA3 soil drench plus foliar spray on AX5/antisense CPScc seedlings; type: in vivo, Glycine max; details: 1×10^−6 M GA3 soil drench before planting plus foliar 1×10^−5 M GA3 spray
Excerpt: Two out of 59 transgenic soybean lines transformed with construct pMON34439 (AX5 promoter/antisense CPScc, FIG. 26), lines 46 and 202, show a reduced stature during early seedling growth and then resume normal vegetative growth. Twenty seeds of each line are sown in Metromix 350 soil in 3″ plastic pots in the greenhouse, approximately 40% of the seedlings are reduced in stature for line 46 and 25, 35% for line 202.

[3] = tested on: constitutively GA-deficient transgenic dwarf soybean line 719; assay: Field trial of seed coating application rates, GA-deficient soybean; type: in vivo, Glycine max; details: seed coating
Method: (§1) GA3, GA3-3-acetate, GA5, GA9, and GA12 are evaluated in further field trials. […] The objectives of these tests are: 1) to determine if seed coatings, as compared to imbibition, of GA compounds facilitate rescue of constitutively GA-deficient transgenic dwarf soybeans (transgenic lines 719−2 plus 719+17) without causing elongation of wild-type soybeans (line A4922), and 2) to determine the seed treatment rate ranges for each of the selected GA compounds that would provide rescue of constitutively GA-deficient transgenic dwarf soybeans (transgenic lines 719−2 plus 719+17) without causing elongation of wild-type soybeans (line A4922).
(§2) Seeds are treated with GA3, GA5, GA9, GA12, and GA3-3-acetate at rates of 0, 0.1, 1, 10, and 100 μg/seed. These GA compounds are applied to the seeds using a Hege 11 seed treater (Hans-Ulrich Hege GmbH & Co., Waldenburg, Germany); 100% acetone is used as the carrier solvent. The amount of liquid introduced into the seed treater is six fluid ounces/100 lbs seed rate. In addition, GA12 is tested at 50 μg/seed. The untreated control (UTC) consisted of dry, untreated seeds. Seeds of constitutively GA-deficient transgenic dwarf soybean line 719 and wild-type A4922 are sown in both light and heavy soil. The planting depth is 0.5 to 1 inch (1.27 to 2.54 cm); watering is via drip irrigation. The experiment is carried out in three repetitions, using 25 seeds/plot (one five foot (152.4 cm) long row) for line 719, and 75 seeds/plot (two eight foot (243.8 cm) rows) for line A4922. Observations included total emergence, number of dwarfs not rescued, uniformity in plant height, average plant height, visual notes, and digital photos.
(§3) In all the experiments reported in Tables 17-24, treatments are replicated three times in a randomized block design. Data are analyzed using LSD (least significant difference) 0.05 probability using the PRM 5.0 Statistical Analysis Program (SAS Institute, North Carolina).

[4] = tested on: wild-type soybean line A4922; assay: Field trial of seed coating application rates, wild-type soybean
Method: as §1, §2, §3

[5] = 'no GA': single spray treatment at 21 DAP with GA, not further sprayed
[6] = GA sprayed approximately every week starting at 21 DAP

C=C1C[C@]23C[C@@]1(O)CC[C@H]2[C@@]12C=C[C@H](O)[C@@](C)(C(=O)O1)[C@H]2[C@@H]3C(=O)O [GA3, gibberellic acid]
Plant height (cm), 21 DAP [1, 5]: 2.0 cm and 2.5 cm
Plant height (cm), 50 DAP [1, 5]: 13 cm
Plant height (cm), 21 DAP [1, 6]: 2.5 cm
Plant height (cm), 50 DAP [1, 6]: 61 cm and 56 cm
normal growth rate of seedlings [2]: at least partially restored
719 Height, cm, Heavy soil ([3]; 0.1 μg compound per seed): 5.7 cd cm
719 Height, cm, Light soil ([3]; 0.1 μg compound per seed): 5.7 ef cm
No. 719 Emerged, Heavy soil ([3]; 0.1 μg compound per seed): 19.7 a-d
No. 719 Emerged, Light soil ([3]; 0.1 μg compound per seed): 21.3 abc
No. 719 Not Rescued, Heavy soil ([3]; 0.1 μg compound per seed): 0 f
No. 719 Not Rescued, Light soil ([3]; 0.1 μg compound per seed): 1
719 Height, cm, Heavy soil ([3]; 1 μg compound per seed): 5.3 cde cm
719 Height, cm, Light soil ([3]; 1 μg compound per seed): 5.7 ef cm
No. 719 Emerged, Heavy soil ([3]; 1 μg compound per seed): 17.3 b-e
No. 719 Emerged, Light soil ([3]; 1 μg compound per seed): 20.7 abc
No. 719 Not Rescued, Heavy soil ([3]; 1 μg compound per seed): 0.3 ef
No. 719 Not Rescued, Light soil ([3]; 1 μg compound per seed): 0
719 Height, cm, Heavy soil ([3]; 10 μg compound per seed): 10.3 a cm
719 Height, cm, Light soil ([3]; 10 μg compound per seed): 11.7 bc cm
No. 719 Emerged, Heavy soil ([3]; 10 μg compound per seed): 18.3 a-e
No. 719 Emerged, Light soil ([3]; 10 μg compound per seed): 21.0 abc
No. 719 Not Rescued, Heavy soil ([3]; 10 μg compound per seed): 0 f
No. 719 Not Rescued, Light soil ([3]; 10 μg compound per seed): 0
719 Height, cm, Heavy soil ([3]; 100 μg compound per seed): 9.3 ab cm
719 Height, cm, Light soil ([3]; 100 μg compound per seed): 13.7 a cm
No. 719 Emerged, Heavy soil ([3]; 100 μg compound per seed): 8.0 f
No. 719 Emerged, Light soil ([3]; 100 μg compound per seed): 16.7 cd
No. 719 Not Rescued, Heavy soil ([3]; 100 μg compound per seed): 0 f
No. 719 Not Rescued, Light soil ([3]; 100 μg compound per seed): 0
A4922 Height, cm, Heavy soil ([4]; 0.1 μg compound per seed): 5.7 efg cm
A4922 Height, cm, Light soil ([4]; 0.1 μg compound per seed): 6.7 fg·cm
No. A4922 Emerged, Heavy soil ([4]; 0.1 μg compound per seed): 28.0 c-g
No. A4922 Emerged, Light soil ([4]; 0.1 μg compound per seed): 42.7 e-i
A4922 Height, cm, Heavy soil ([4]; 1 μg compound per seed): 6.0 efg cm
A4922 Height, cm, Light soil ([4]; 1 μg compound per seed): 8.3 ef cm
No. A4922 Emerged, Heavy soil ([4]; 1 μg compound per seed): 16.7 g
No. A4922 Emerged, Light soil ([4]; 1 μg compound per seed): 36.3 i
A4922 Height, cm, Heavy soil ([4]; 10 μg compound per seed): 10.3 cm·days
A4922 Height, cm, Light soil ([4]; 10 μg compound per seed): 12.7 cm·days
No. A4922 Emerged, Heavy soil ([4]; 10 μg compound per seed): 28.7 c-g
No. A4922 Emerged, Light soil ([4]; 10 μg compound per seed): 39.7 f-j
A4922 Height, cm, Heavy soil ([4]; 100 μg compound per seed): 21.0 a cm
A4922 Height, cm, Light soil ([4]; 100 μg compound per seed): 27.0 ab cm
No. A4922 Emerged, Heavy soil ([4]; 100 μg compound per seed): 19.7 efg
No. A4922 Emerged, Light soil ([4]; 100 μg compound per seed): 38.0 hi
